In brackets after ≈: the same amount, converted by molar mass. Activity calls are given as the source filed them. The rule behind the calls is not given here.
Tests used:
Bacillus subtilis = experiment: Antimicrobial activity against Bacillus subtilis by at 20 ug/disk by disk diffusion method; type: functional, organism-based
P388 = experiment: Cytotoxicity against mouse P388 cells; type: functional, cell-based
Aspergillus nidulans = experiment: Antimicrobial activity against Aspergillus nidulans by at 20 ug/disk by disk diffusion method; type: functional, organism-based
Escherichia coli = experiment: Antimicrobial activity against Escherichia coli by at 20 ug/disk by disk diffusion method; type: functional, organism-based
Candida albicans = experiment: Antimicrobial activity against Candida albicans ATCC 44506 by broth microdilution method; type: functional

Structure (SMILES) | Activity (Bacillus subtilis) | IC50 (P388) [µg/mL] | Activity (Aspergillus nidulans) | Activity (Escherichia coli) | MIC (Candida albicans) [µg/mL]
CC/C=C/C(CC)CC(C)CC1(CC)C=C(CC)C(CC(=O)O)OO1 (stereo not given) | Active | 0.3 (≈ 0.851 µM) | Active | inactive | 1.6 (≈ 4.54 µM)
CCCCC(CC)CC(C)CC1(CC)C=C(CC)C(CC(=O)O)OO1 (stereo not given) | Active | 0.2 (≈ 0.564 µM) | Active | inactive | 1.6 (≈ 4.51 µM)
CCCCC(CC)CC(C)CC1(CC)C=C(CC)C(CC(=O)OC)OO1 (stereo not given) | inactive | 0.2 (≈ 0.543 µM) | inactive | inactive | > 50
CC/C=C/C(CC)CC(C)CC1(CC)C=C(CC)C(CC(=O)OC)OO1 (stereo not given) | inactive | 0.9 (≈ 2.46 µM) | inactive | inactive | > 50

— ChEMBL document CHEMBL1158905, “Two New Bioactive Cyclic Peroxides from the Marine Sponge Plakortis angulospiculatus” (J Nat Prod, 1990)
